Measurements: ChEMBL document CHEMBL1201862, “PubChem BioAssay data set” (2004)
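Step 1: Grow cells in 96-well plates. Step 2: Expose to compound for 48 hours at 5 concentrations. Step 3: Interpolate endpoints linearly; if unreached, use highest concentration. The concentration for 50% growth inhibition is given as GI50.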 The source made the active and inactive calls. Cut-off read from the data, not from the text of the source: active = GI50 up to about 1.1 µM and inactive = higher.

Columns and labels:
Test in all cases: DTP human tumour cell line panel, 48 h
IGROV-1 = system: IGROV-1
HCT-116 = system: HCT-116
Hs-578T = system: Hs-578T
K562 = system: K562
MOLT-4 = system: MOLT-4
PC-3 = system: PC-3
ACHN = system: ACHN
NCI/ADR-RES = system: NCI/ADR-RES
NCI-H23 = system: NCI-H23
TK-10 = system: TK-10
Malme-3M = system: Malme-3M
SN12C = system: SN12C
OVCAR-5 = system: OVCAR-5
CCRF-CEM = system: CCRF-CEM
SF-539 = system: SF-539
A549 = system: A549
UO-31 = system: UO-31
COLO 205 = system: COLO 205
BT-549 = system: BT-549

Measured: GI50

O=C(Nc1cccc(-c2cn3ccccc3n2)c1)c1ccncc1
inactive: IGROV-1 40.9 µM | HCT-116 33.1 µM | Hs-578T 38.1 µM | K562 24.6 µM | MOLT-4 21.7 µM | PC-3 35.9 µM | ACHN 41.1 µM | NCI/ADR-RES 21.7 µM | NCI-H23 23.6 µM | TK-10 56.9 µM | Malme-3M 29.3 µM | SN12C 32.7 µM | OVCAR-5 > 100 µM | CCRF-CEM 27.3 µM | SF-539 50.6 µM | A549 44.9 µM | UO-31 43.1 µM | COLO 205 31.3 µM | BT-549 21.7 µM

O=c1oc2ccccc2c(-c2ccc(O)cc2)c1Oc1ccc(Cl)cc1
inactive: IGROV-1 20.3 µM | HCT-116 15.8 µM | Hs-578T 16.1 µM | K562 21 µM | PC-3 25.8 µM | ACHN 25.8 µM | NCI/ADR-RES 24.5 µM | NCI-H23 20.7 µM | TK-10 20.7 µM | Malme-3M 18.2 µM | SN12C 24 µM | OVCAR-5 31.8 µM | CCRF-CEM 21.4 µM | SF-539 30.4 µM | A549 19.3 µM | UO-31 18.1 µM | COLO 205 23.2 µM | BT-549 23.2 µM

CC1(C)CC(=O)C2=C(C1)OC1(CC2c2ccc(Cl)cc2)CC(c2ccc(Cl)cc2)C2=C(CC(C)(C)CC2=O)O1 (stereo not drawn)
inactive: IGROV-1 12.5 µM | HCT-116 12.2 µM | Hs-578T 16.5 µM | K562 8.18 µM | MOLT-4 3.13 µM | PC-3 18.2 µM | ACHN 18.5 µM | NCI/ADR-RES > 38.5 µM | NCI-H23 16.3 µM | TK-10 32.4 µM | Malme-3M 15.3 µM | SN12C 36.7 µM | OVCAR-5 26.9 µM | CCRF-CEM 15.5 µM | SF-539 20.5 µM | A549 13.6 µM | UO-31 13.6 µM | COLO 205 16 µM | BT-549 20.7 µM

CS(=O)(=O)Nc1ccc2c(c1)N(S(C)(=O)=O)CC2CCl (stereo not drawn)
inactive: IGROV-1 > 100 µM | HCT-116 > 100 µM | Hs-578T > 100 µM | K562 > 100 µM | MOLT-4 > 100 µM | PC-3 > 100 µM | ACHN > 100 µM | NCI/ADR-RES > 100 µM | NCI-H23 > 100 µM | TK-10 > 100 µM | Malme-3M > 100 µM | SN12C > 100 µM | OVCAR-5 > 100 µM | CCRF-CEM > 100 µM | SF-539 > 100 µM | A549 > 100 µM | UO-31 > 100 µM | COLO 205 > 100 µM | BT-549 > 100 µM

O=C(/C=C/c1ccc(O)cc1)c1cc(-c2cc(CCC(=O)c3ccc(O)cc3O)ccc2O)c(O)cc1O
inactive: IGROV-1 16.2 µM | HCT-116 19.8 µM | Hs-578T 23.7 µM | K562 17.7 µM | MOLT-4 7.23 µM | PC-3 22.6 µM | ACHN > 50 µM | NCI/ADR-RES > 50 µM | NCI-H23 35.9 µM | TK-10 18.1 µM | Malme-3M 24.9 µM | SN12C 32.2 µM | OVCAR-5 > 50 µM | CCRF-CEM 13.1 µM | SF-539 10.8 µM | A549 > 50 µM | UO-31 > 50 µM | COLO 205 11.4 µM | BT-549 36.1 µM

O=c1cc(NNCc2ccccc2)[nH]c(=O)[nH]1
inactive: IGROV-1 > 100 µM | HCT-116 > 10 µM | Hs-578T 58.1 µM | K562 > 100 µM | MOLT-4 69.2 µM | PC-3 > 100 µM | ACHN > 100 µM | NCI/ADR-RES > 100 µM | NCI-H23 > 100 µM | TK-10 > 100 µM | Malme-3M 80.5 µM | SN12C > 100 µM | OVCAR-5 > 100 µM | CCRF-CEM > 100 µM | SF-539 > 100 µM | A549 > 100 µM | UO-31 74 µM | COLO 205 > 100 µM | BT-549 > 100 µM

CCOP(=O)(OCC)C(Nc1ccc(F)cc1)c1cccc([N+](=O)[O-])c1 (stereo not drawn)
inactive: IGROV-1 78.9 µM | HCT-116 46.8 µM | Hs-578T 82.8 µM | K562 38.9 µM | MOLT-4 37.2 µM | PC-3 67.5 µM | ACHN > 100 µM | NCI/ADR-RES 47.1 µM | NCI-H23 > 100 µM | TK-10 > 100 µM | Malme-3M 83.8 µM | SN12C > 100 µM | OVCAR-5 > 100 µM | CCRF-CEM 62.4 µM | SF-539 > 100 µM | A549 58.7 µM | UO-31 40.6 µM | COLO 205 70.5 µM | BT-549 89.3 µM

O=C(CCCn1ccnc1[N+](=O)[O-])NCCn1ccnc1[N+](=O)[O-]
inactive: IGROV-1 > 100 µM | HCT-116 > 100 µM | Hs-578T > 100 µM | K562 > 100 µM | MOLT-4 > 100 µM | PC-3 > 100 µM | ACHN > 100 µM | NCI/ADR-RES > 100 µM | NCI-H23 > 100 µM | TK-10 > 100 µM | Malme-3M > 100 µM | SN12C > 100 µM | OVCAR-5 > 100 µM | CCRF-CEM > 100 µM | SF-539 > 100 µM | A549 > 100 µM | UO-31 > 100 µM | COLO 205 > 100 µM | BT-549 > 100 µM

CCOP(=O)(OCC)C(C)(C)OC(=O)NC(F)(F)F
inactive: IGROV-1 > 100 µM | HCT-116 > 100 µM | Hs-578T > 100 µM | K562 > 100 µM | MOLT-4 > 100 µM | PC-3 > 100 µM | ACHN > 100 µM | NCI/ADR-RES > 100 µM | NCI-H23 > 100 µM | TK-10 > 100 µM | Malme-3M > 100 µM | SN12C > 100 µM | OVCAR-5 > 100 µM | CCRF-CEM > 100 µM | SF-539 > 100 µM | A549 > 100 µM | UO-31 > 100 µM | COLO 205 > 100 µM | BT-549 > 100 µM

COc1ccc(/C=C2\CCC(C)C3=C(c4ccc(OC)c(OC)c4)C(C#N)=C(N)OC32)cc1OC (stereo not drawn)
inactive: IGROV-1 2.39 µM | HCT-116 2.82 µM | Hs-578T 4.42 µM | K562 3.78 µM | MOLT-4 2.55 µM | PC-3 3.13 µM | ACHN 3.66 µM | NCI/ADR-RES 2.65 µM | NCI-H23 2.7 µM | TK-10 4.04 µM | Malme-3M 2.48 µM | SN12C 3.45 µM | OVCAR-5 2.75 µM | CCRF-CEM 2.28 µM | SF-539 1.55 µM | UO-31 2.4 µM | COLO 205 2.76 µM | BT-549 3.51 µM
